Experimental data from the NIST ThermoML archive (doi:10.1021/je500731x).
Numbers after ± are expanded uncertainties. Blank lines part the entries; values can stand above or below the molecule they belong to.

Conditions: Liquid, Ebulliometric method (Recirculating still)

Structure (SMILES): CCCCCC(C)=O [2-heptanone]
- vapor or sublimation pressure (354.77 K): 9.87 ± 0.73 kPa
- vapor or sublimation pressure (358.59 K): 11.52 ± 0.73 kPa
- vapor or sublimation pressure (365.38 K): 15.05 ± 0.73 kPa
- vapor or sublimation pressure (367.88 K): 16.52 ± 0.74 kPa
- vapor or sublimation pressure (368.9 K): 17.34 ± 0.75 kPa
- vapor or sublimation pressure (373.79 K): 20.76 ± 0.74 kPa
- vapor or sublimation pressure (373.84 K): 20.76 ± 0.74 kPa
- vapor or sublimation pressure (379.25 K): 25.32 ± 0.75 kPa
- vapor or sublimation pressure (379.3 K): 25.32 ± 0.75 kPa
- vapor or sublimation pressure (383.78 K): 29.69 ± 0.76 kPa
- vapor or sublimation pressure (383.83 K): 29.69 ± 0.76 kPa
- vapor or sublimation pressure (388.51 K): 34.81 ± 0.77 kPa
- vapor or sublimation pressure (392.54 K): 40 ± 0.88 kPa
- vapor or sublimation pressure (393.11 K): 40.52 ± 0.79 kPa
- vapor or sublimation pressure (398.45 K): 48.09 ± 0.81 kPa
- vapor or sublimation pressure (403.15 K): 55.74 ± 0.83 kPa
- vapor or sublimation pressure (405.81 K): 60.35 ± 0.84 kPa
- vapor or sublimation pressure (409.67 K): 67.5 ± 0.86 kPa
- vapor or sublimation pressure (413.3 K): 75.05 ± 0.9 kPa
- vapor or sublimation pressure (416.77 K): 83.2 ± 0.92 kPa
- vapor or sublimation pressure (420.2 K): 91.5 ± 0.93 kPa

Structure (SMILES): CCCCC(=O)CC [3-heptanone]
- vapor or sublimation pressure (354.82 K): 11.05 ± 0.73 kPa
- vapor or sublimation pressure (358.58 K): 12.93 ± 0.73 kPa
- vapor or sublimation pressure (363.03 K): 15.51 ± 0.74 kPa
- vapor or sublimation pressure (367.95 K): 18.75 ± 0.74 kPa
- vapor or sublimation pressure (373.6 K): 23.27 ± 0.75 kPa
- vapor or sublimation pressure (377.99 K): 27.11 ± 0.76 kPa
- vapor or sublimation pressure (383.09 K): 32.58 ± 0.77 kPa
- vapor or sublimation pressure (388.11 K): 40 ± 0.9 kPa
- vapor or sublimation pressure (388.36 K): 40 ± 0.9 kPa
- vapor or sublimation pressure (388.62 K): 39.13 ± 0.78 kPa
- vapor or sublimation pressure (388.67 K): 40 ± 0.9 kPa
- vapor or sublimation pressure (393.02 K): 45.12 ± 0.81 kPa
- vapor or sublimation pressure (398.84 K): 54.02 ± 0.83 kPa
- vapor or sublimation pressure (404.44 K): 64.03 ± 0.86 kPa
- vapor or sublimation pressure (409.63 K): 74.5 ± 0.89 kPa
- vapor or sublimation pressure (412.95 K): 82 ± 0.93 kPa
- vapor or sublimation pressure (416.5 K): 90.5 ± 0.94 kPa

Structure (SMILES): CCCC(=O)CCC [4-heptanone]
- vapor or sublimation pressure (358.74 K): 14.54 ± 0.74 kPa
- vapor or sublimation pressure (363.42 K): 17.72 ± 0.74 kPa
- vapor or sublimation pressure (370.01 K): 22.69 ± 0.75 kPa
- vapor or sublimation pressure (377.77 K): 29.93 ± 0.76 kPa
- vapor or sublimation pressure (383.7 K): 36.63 ± 0.78 kPa
- vapor or sublimation pressure (385.47 K): 40 ± 0.9 kPa
- vapor or sublimation pressure (385.5 K): 40 ± 0.9 kPa
- vapor or sublimation pressure (385.87 K): 40 ± 0.9 kPa
- vapor or sublimation pressure (388.63 K): 43.17 ± 0.8 kPa
- vapor or sublimation pressure (393.78 K): 50.95 ± 0.83 kPa
- vapor or sublimation pressure (398.38 K): 59.15 ± 0.85 kPa
- vapor or sublimation pressure (403.74 K): 69.39 ± 0.88 kPa
- vapor or sublimation pressure (407.98 K): 78.55 ± 0.91 kPa
- vapor or sublimation pressure (411.2 K): 86.2 ± 0.94 kPa
- vapor or sublimation pressure (413.43 K): 91.55 ± 0.94 kPa

Structure (SMILES): CCCCO [butan-1-ol]
- vapor or sublimation pressure (390.49 K): 101.3 ± 1.5 kPa

Structure (SMILES): CCO [ethanol]
- vapor or sublimation pressure (351.14 K): 101.3 ± 1.5 kPa

Continued, values first:

- vapor or sublimation pressure (413.88 K): 40 ± 0.88 kPa
Structure (SMILES): CCCCCCCCCC [decane]

- vapor or sublimation pressure (391.78 K): 40 ± 0.88 kPa
- vapor or sublimation pressure (391.87 K): 40 ± 0.88 kPa
- vapor or sublimation pressure (391.9 K): 40 ± 0.88 kPa
Structure (SMILES): CCCCCCCCC [nonane]

- vapor or sublimation pressure (367.97 K): 40 ± 0.88 kPa
- vapor or sublimation pressure (368.3 K): 40 ± 0.88 kPa
- vapor or sublimation pressure (368.32 K): 40 ± 0.88 kPa
Structure (SMILES): CCCCCCCC [octane]
